Reference: US8697939B2, “Mouse model for depression, schizophrenia and alzheimer's disease and the use thereof” (National Yang Ming University, priority 2009, dated 2014)
“Also recorded” adds a separate entry of the source.

Assays:
[1] = phase II clinical trials; cited from earlier work
glycine transporter-1 = molecular target: T1, glycine transporter-1 (Homo sapiens, UniProt P48067); conditions: clinical studies, supplement of sarcosine; cited from earlier work
T1 construct: host or cells: human patients (endogenous transporter)
T1 sequence (P48067 1-706): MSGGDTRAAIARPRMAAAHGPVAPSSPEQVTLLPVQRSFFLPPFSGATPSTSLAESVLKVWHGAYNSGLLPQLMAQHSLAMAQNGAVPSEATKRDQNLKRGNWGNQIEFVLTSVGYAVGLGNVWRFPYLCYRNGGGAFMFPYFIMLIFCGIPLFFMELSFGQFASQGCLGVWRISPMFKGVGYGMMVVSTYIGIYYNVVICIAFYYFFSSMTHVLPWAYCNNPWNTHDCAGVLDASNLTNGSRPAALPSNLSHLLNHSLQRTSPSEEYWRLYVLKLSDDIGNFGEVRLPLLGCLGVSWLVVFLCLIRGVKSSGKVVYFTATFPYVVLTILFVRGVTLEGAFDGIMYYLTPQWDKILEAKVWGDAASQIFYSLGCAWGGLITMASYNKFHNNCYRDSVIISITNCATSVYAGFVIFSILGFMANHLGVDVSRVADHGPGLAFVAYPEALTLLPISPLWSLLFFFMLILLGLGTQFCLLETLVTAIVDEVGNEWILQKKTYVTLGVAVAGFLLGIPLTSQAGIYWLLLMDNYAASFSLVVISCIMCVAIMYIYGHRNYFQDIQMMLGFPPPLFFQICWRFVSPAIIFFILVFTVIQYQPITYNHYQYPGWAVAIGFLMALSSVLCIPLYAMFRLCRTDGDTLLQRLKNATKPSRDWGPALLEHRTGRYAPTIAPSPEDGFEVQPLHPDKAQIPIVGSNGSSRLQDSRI

GNMT knockout mice = experiment: Prepulse inhibition (PPI) of acoustic startle reflex in drug-treated GNMT knockout mice; format: in vivo, mouse
Protocol: The apparatus consisted of two startle chambers (Med Associates, Georgia, Vt.). One mouse selected from the WT control group and the other selected from GNMT deficient group were tested simultaneously. Each mouse was put into the PPI chamber for a 5-min acclimatization period with a […] background noise. Following this period, 10 startle pulses (120 dB, 40 ms duration) were presented with an average inter-trial interval of 15 s. Then, no stimulus (background noise, 68 dB), prepulses alone (72, 76 and 84 dB, 20 ms duration), startle pulses alone, and prepulses followed 80 ms later by startle pulses were presented six times randomly distributed over the next 20 min. […]
In view of the observed deficits in prepulse inhibition (PPI) of the acoustic startle reflex in GNMT knockout mice, we administered clozapine (a […] anti-schizophrenic drug, 1 mg/kg) to the GNMT knockout mice, and evaluated the therapeutic effects on schizophrenia. […]
Another hypothesis of schizophrenia pathology is that neuropsychiatric disorder may be associated with the dysfunction of N-methyl-D-aspartate (NMDA) receptor, a glutamate receptor. […] Therefore, in a further experiment, sarcosine (100 mg/kg) is administered to the GNMT knockout mice, and evaluated its therapeutic effects on schizophrenia.

With `CNCC(=O)O` [sarcosine] as the molecule, how does the symptoms of depression [1] read?
Its symptoms of depression is “effective to ameliorate symptoms of depression”.

And the symptoms of schizophrenia (glycine transporter-1)?
Its symptoms of schizophrenia is “can improve the symptoms of schizophrenia”.

What about the “level of startle amplitude” value (GNMT knockout mice; sarcosine 100 mg/kg (FIG. 10)) of the same molecule?
Its value is “unaffected”.

What about the “percent PPI of ASR” value (GNMT knockout mice; sarcosine 100 mg/kg, compared with solvent control (FIG. 11)) of the same molecule?
Its value is “significantly induced PPI; also recorded: significantly ameliorated deficits in prepulse inhibition”.
